Data reported in US9487462B2, “Inhibitors of matrix metalloproteinases” (PharmaHungary 2000 Kft., priority 2010, dated 2016).
Read-outs that look alike come from different tables or passages of the source.

How the values were obtained:
[1] = Cytotoxicity, alamarBlue viability, HCT116; format: cell-based; conditions: human, HCT116 colon tumor cells, 48 hours incubation, read-out: HCT116 LC50
Summary of the method: (§1)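 Cells exposed to compound dilutions for 48 hours, then alamarBlue added for 4 hours; fluorescence read at ex 540/em 590 nm. IC50 from six concentrations run in duplicate.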

MMP1 [2] = biological target: T1, MMP1 (Homo sapiens (Human), UniProt P03956); test: MMP activity assay (fluorogenic substrate), MMP1; format: biochemical
Target sequence in this assay (P03956 100-469, species assumed): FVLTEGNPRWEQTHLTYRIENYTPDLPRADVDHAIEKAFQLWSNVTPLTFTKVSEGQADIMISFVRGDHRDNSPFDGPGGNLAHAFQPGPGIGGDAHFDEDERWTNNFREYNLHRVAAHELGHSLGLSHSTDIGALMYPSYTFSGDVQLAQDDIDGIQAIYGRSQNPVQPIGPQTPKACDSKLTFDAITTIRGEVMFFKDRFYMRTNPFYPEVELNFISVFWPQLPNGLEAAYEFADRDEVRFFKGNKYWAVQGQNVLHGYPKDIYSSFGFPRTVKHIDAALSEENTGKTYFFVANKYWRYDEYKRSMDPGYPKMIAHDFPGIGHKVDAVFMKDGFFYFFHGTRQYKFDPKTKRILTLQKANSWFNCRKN

[3] = system: neonatal rat cardiac myocytes; test: Cytoprotective effect in cardiac myocytes subjected to hypoxia and reoxygenation; format: cell-based
Summary of the method: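 Day-3 neonatal rat cardiomyocytes subjected to 4 h simulated ischemia (95% N2/5% CO2, hypoxic solution, 37 °C) or normoxia, then reoxygenation. MMP inhibitors at EC5, EC10, EC20 and EC50 (DMSO vehicle; ilomastat 0.5 µM control) present throughout; viability by calcein-AM relative to digitonin/propidium iodide total cell count.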

MMP1 [4] = biological target: T1, MMP1; test: In vitro zymography assay (casein), MMP-1; format: biochemical; conditions: % ± SD
Description: (§2) MMP-2 and MMP-9 enzymes were isolated from rat hearts and from rat spleen while human, recombinant MMP-1 and MMP-13 enzymes used were commercial. MMP-2, -9, -13 enzymes were separated by electrophoresis during non-reducing conditions on 8% SDS-polyacrylamide gels copolymerized with 2 mg/ml gelatin from porcine skin (Sigma Aldrich) while MMP-1 was separated under the same conditions on 8% SDS-polyacrylamide gels copolymerized with 2 mg/ml casein (Sigma Aldrich). […] In case of MMP-13 p-aminophenylmercuric acetate (APMA) was used for enzyme activation at 37° C. for 30 min. After electrophoresis, gels were washed in 2.5% Triton-X 100 with agitation and then incubated for 20 hrs at 37° C. in enzyme incubation buffer (50 mM Tris-HCl, pH 7.5, containing 5 mM CaCl2, 200 mM NaCl) with or without MMP inhibitor. Zymographic gels were stained in Coomassie Brilliant Blue R-250 and de-stained. Gelatin and casein zymograms were scanned. MMP activity is detected as a white zone on a blue background and the clear bands in the gel can be quantified by densitometry. The obtained density values were measured and % inhibition values calculated (Kupai et al., 2010). The table below summarizes the prescreen inhibition values determined for different MMP inhibitors on MMP1, -2, -9, -13.
Target sequence in this assay (P03956 100-469): as the sequence (P03956 100-469, species assumed) above

MMP13 = MMP13 (Homo sapiens (Human), UniProt P45452); test: In vitro zymography assay (gelatin), MMP-13; format: biochemical; conditions: % ± SD
Description: as §2

[5] = Cytotoxicity, alamarBlue viability, MRC-5; format: cell-based; conditions: human, MRC-5 fibroblast cells, 48 hours incubation, read-out: MRC-5 LC50
Summary of the method: as §1

[6] = read-out: % inhibition MMP-1 (52 kDa)
[7] = read-out: % inhibition MMP-1 (55 kDa)

IC50 (MMP1 [2]; Table 2, read-out: MM1 IC50): 51 µM
IC50 (MMP1 [2]; read-out: IC50 on MMP1): 46 µM
inhibition at 1 µM (MMP1 [4]; [6]): 25.9 ± 9.51%
inhibition at 1 µM (MMP1 [4]; [7]): 29.2 ± 38.7%
inhibition at 100 µM (MMP1 [4]; [6]): 58 ± 12.6%
inhibition at 100 µM (MMP1 [4]; [7]): 95.3 ± 8.17%
inhibition at 1 µM (MMP13; 1 μM, read-out: % inhibition MMP-13 (50 kDa)): 54.4 ± 2.33%
% inhibition MMP-13 (50 kDa) (MMP13; 100 μM): No inhibition
Compound: O=C(O)c1csc(CN(Cc2ccc(F)cc2)Cc2ccc(OCc3cccnc3)cc2)n1 [Compound 1, 2-({[(4-Fluorophenyl)methyl]({[4-(pyridin-3-ylmethoxy)phenyl]methyl})amino}methyl)-1,3-thiazole-4-carboxylic acid]
CC50 at 48 h [1]: 11 µM
Cytoprotective effect, % cell survival as compared to vehicle DMSO ([3]; normoxia, EC5 concentration 2.6 microM): 120 ± 2 %
Cytoprotective effect, % cell survival as compared to vehicle DMSO ([3]; normoxia, EC10 concentration 6.3 microM): 99 ± 2%
Cytoprotective effect, % cell survival as compared to vehicle DMSO ([3]; normoxia, EC20 concentration 10.4 microM): 94 ± 2%
Cytoprotective effect, % cell survival as compared to vehicle DMSO ([3]; normoxia, EC50 concentration 17.7 microM): 86 ± 2 %
Cytoprotective effect, % cell survival as compared to vehicle DMSO ([3]; simulated ischemia, EC5 concentration 2.6 microM): 125 ± 6 %
Cytoprotective effect, % cell survival as compared to vehicle DMSO ([3]; simulated ischemia, EC10 concentration 6.3 microM): 109 ± 2%
Cytoprotective effect, % cell survival as compared to vehicle DMSO ([3]; simulated ischemia, EC20 concentration 10.4 microM): 106 ± 2%
Cytoprotective effect, % cell survival as compared to vehicle DMSO ([3]; simulated ischemia, EC50 concentration 17.7 microM): 97 ± 2%
CC50 at 48 h [5]: 25 µM
